{"source": "paper PMC11555231", "about": "(Nature Communications, 2024)", "key": {"[1]": {"tested_on": "hPADI4-stable mES cells", "assay": "High content microscopy of citrullinated histone H3 (H3Cit) in hPADI4-stable mES cells", "format": "cell-based, mouse", "details": "KSR/2i 3 h, Fig. S7B", "protocol": "HaLo-GFP-mito HeLa cells were grown in DMEM (Gibco) supplemented with 10% foetal bovine serum (FBS), penicillin/streptomycin (100 µg/ml) and puromycin (1 µg/ml) at 37 °C, 5% CO2. HaLo-GFP-mito HeLa cell line[82] was profiled by short tandem repeat analysis (STR) and tested negative for mycoplasma by the Cell Services Technology Platform at the Francis Crick Institute. E14 –mouse embryonic stem cells (Cambridge Stem Cell Institute, UK) were cultured in plates coated with 1% gelatine in GMEM supplemented with 10% foetal calf serum (FCS) batch-tested for ES cell culture (Gibco), 0.1 mM non-essential amino acids, 2 mM L-glutamine, 1 mM sodium pyruvate, 0.1 mM β-mercaptoethanol and 50 ng/mL leukaemia inhibitory factor (LIF) (ESGRO, Millipore). For PADI4 activation, cells were cultured in GMEM containing 10% knockout serum replacement (KSR, Life Technologies), 1% FCS batch-tested for ES cell culture (Gibco), 0.1 mM non-essential amino acids, L-glutamine, 1 mM sodium pyruvate, 0.1 mM β-mercaptoethanol, 50 ng/mL LIF (ESGRO, Millipore), 1 μM PD0325901 (AxonMedChem) and 3 μM CHIR99021 (AxonMedChem). For the generation of E14 mES stably expressing human PADI4 (hPADI4-stable), human PADI4 cDNA was inserted into ES E14 cells using the piggyBac transposon system. The Gateway system was used to clone human PADI4 into the piggyBac vector using primers PADI4_AttB1_F and PADI4_AttB2_R (Table S4). pPB-CAG-CTRL (empty vector) or pPB-CAG-hPADI4 vectors […] were transfected with the piggyBac transposase (pPBase) expression vector, pCAGPBase […], by lipofection according to the manufacturer’s instructions (Lipofectamine 2000, Invitrogen). E14 cells constitutively expressing the hygromycin resistance gene and human PADI4 were selected and expanded in media containing […] hygromycin.\nE14 cells were seeded onto 96-well PerkinElmer cell carrier ultra plates (Phenoplates) coated with 0.1% gelatine, at 25,000 cells per well and grown overnight at 37 °C, 5% CO2. Outer wells were excluded but medium was added to minimise any edge effects. […]"}, "[2]": {"target": "T1, hPADI4 (Homo sapiens, UniProt Q9UM07)", "T1 construct": "PADI4 (residues 1–663); Avi-Tag (unbiotinylated); made in house; host or cells: E. coli BL21(DE3) without BirA", "T1 sequence (Q9UM07 whole entry, the tested form may be a part)": "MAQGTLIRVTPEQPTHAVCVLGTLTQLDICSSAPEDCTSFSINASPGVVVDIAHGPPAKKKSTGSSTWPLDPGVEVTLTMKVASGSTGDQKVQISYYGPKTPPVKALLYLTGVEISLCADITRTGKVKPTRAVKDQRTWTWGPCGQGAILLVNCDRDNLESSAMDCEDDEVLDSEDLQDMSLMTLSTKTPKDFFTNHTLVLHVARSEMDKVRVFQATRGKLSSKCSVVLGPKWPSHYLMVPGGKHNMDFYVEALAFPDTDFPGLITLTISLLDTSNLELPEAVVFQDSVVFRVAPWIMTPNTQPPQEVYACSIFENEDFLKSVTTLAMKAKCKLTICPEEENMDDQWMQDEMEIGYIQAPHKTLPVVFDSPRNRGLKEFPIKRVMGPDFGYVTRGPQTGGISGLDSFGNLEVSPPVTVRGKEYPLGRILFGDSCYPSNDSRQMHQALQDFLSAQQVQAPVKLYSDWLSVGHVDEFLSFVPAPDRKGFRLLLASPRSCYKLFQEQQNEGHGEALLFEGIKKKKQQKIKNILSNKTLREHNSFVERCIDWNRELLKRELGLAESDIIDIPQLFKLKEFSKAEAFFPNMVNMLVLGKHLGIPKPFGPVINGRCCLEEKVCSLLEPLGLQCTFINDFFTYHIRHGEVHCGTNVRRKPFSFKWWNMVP", "assay": "COLDER assay, inhibition of PADI4 at 10 mM CaCl2 (substrate BAEE)", "format": "biochemical", "protocol": "(§1) PADI4 activity was assessed using the COLDER assay[43] that measures the formation of urea-containing compounds (e.g. citrulline). The reaction was carried out in a 96-well plate with a final volume of 50 µl. His-PADI4 (50 nM) was incubated with different concentrations of peptides (100 µM to 0.3 nM) in the presence of CaCl2 (from 10 mM to 0.001 mM as specified) for 10 min. The reaction was started by the addition of 10 mM N^α-Benzoyl-L-arginine ethyl ester hydrochloride (BAEE, Merck). After 30 min, the reaction was quenched with EDTA (50 mM final concentration). For colour development, 200 µl of COLDER solution, consisting of 1 volume of solution A (80 mM diacetyl monoxime/2,3-butanedione monoxime (Merck) and 2 mM thiosemicarbazide (Acros Organics)) and 3 volumes of solution B (3 M H3PO4, 6 M H2SO4 and 2 mM NH4Fe(SO4)2) were added to each well and the mixture was heated at 95 °C for 15 min. After cooling to RT, absorbance at 540 nm was measured, and citrulline concentration was determined using a standard curve of citrulline standards. All studies were performed within the linear range of PADI4 activity, and data analysis was performed using Prism GraphPad (Dotmatics). Data are presented as the average ± standard error of the mean from at least two independent replicates."}, "[3]": {"target": "T1, hPADI4", "assay": "COLDER assay, activation of PADI4 (calcium titration at fixed peptide, or peptide titration at 0.1 mM CaCl2)", "format": "biochemical", "details": "30 µM peptide", "protocol": "as §1"}, "[4]": {"tested_on": "HaLo-GFP-mito HeLa cells", "assay": "Chloroalkane penetration assay (CAPA)", "format": "in vitro ADME", "details": "for CP50: 4 h in Opti-MEM, 37 °C, chase HaLo-Tag TMR ligand 5 µM 15 min, mean ± SEM of three independent experiments; for CP50 at 4 °C relative to 37 °C: peer review response", "protocol": "Following the addition of chloroacetyl-NHS to the N-terminal amino group, Cys(mmt) was selectively deprotected using 1% TFA, 5% triisopropylsilane in DCM (30 min, RT). Peptides were then cyclised on resin using 2% diisopropylethylamine in DMF overnight. Following cyclisation, Lys(ivDde) was deprotected using 2% hydrazine in DMF. The resin was then washed (3 x DCM, 3 x DMF) before on-resin coupling of chloroalkane carboxylic acid was performed on the lysine side chain using Hexafluorophosphate Azabenzotriazole Tetramethyl Uronium / diisopropylethylamine in DMF for 2 h. Global deprotection and purification were then carried out as described above. Chloroalkane carboxylate was synthesised as previously described.\nCAPA assays were performed following the protocol published in ref. [51]. In brief, 40,000 HaLo- GFP-mito HeLa cells were seeded in a 96-well plate. Twenty-four hours later, cells were treated with different concentrations of chloroalkane-tagged peptides (100 µM to 200 nM for PADI4_3 and PADI4_3i and 50 µM to 100 nM for PADI4_11 and PADI4_11i) for 4 h in Opti-MEM. Media containing peptides was then removed, and cells were incubated with Opti-MEM (Gibco) for 15 min. After that time, the wash was removed, and cells were chased with HaLo-Tag TMR ligand (5 µM, Promega) in Opti-MEM for 15 min. The ligand was then removed, and cells were incubated with Opti-MEM for 30 min. Cells were then trypsinised, resuspended in phosphate-buffered saline (PBS) with 0.5% FBS and analysed using a benchtop flow cytometer (MACSQuant® VYB Flow cytometer Milteny Biotec). For each well, 10000 GFP positive single cells were analysed (gating workflow shown in Supplementary Fig. 18), and TMR mean fluorescence was normalised against a positive control (cells treated with HaLo-Tag TMR ligand but no peptide) and a negative control (non-treated cells). Analysis was performed using FlowJo (LCC) software and Prism GraphPad (Dotmatics). Data were presented as the average ± standard error of three independent replicates."}, "[5]": {"tested_on": "hPADI4 expressing mES cells", "assay": "Cytotoxicity by live cell imaging with Incucyte Cytotox Green Dye", "description": "Live cell imaging was performed using an Incucyte® imaging system (Sartorius), using Incucyte® Cytotox Green Dye as per the manufacturer’s instructions.\nE. Assessment of cytotoxicity by live cell imaging with Incucyte® Cytotox\nGreen Dye, as a measure for cell death. hPADI4 expressing mES cells treated with 1 µM\nAssessment of cytotoxicity by live cell imaging with Incucyte® Cytotox Green Dye, as a read-\nvehicle (0.1%), and imaged for 48 h."}, "[6]": {"details": "CAPA, chloroalkane-tagged peptide, 4 °C, flow cytometry, mean ± SEM of two (PADI4_3) or three (PADI4_11) independent experiments"}, "[7]": {"details": "CAPA, chloroalkane-tagged peptide, flow cytometry"}}, "note": "Bridge positions count the residues as written; N and C are the ends. Square brackets hold non-standard residues; d marks the D form. Peptide text beside a SMILES is read from it. Cit = NC(=O)NCCC[C@H](N)C(=O)O", "data": [{"smiles": "NC(=O)[C@H](CCCN=C(N)CCl)NC(=O)c1ccccc1", "note": "[Cl-amidine, reference compound]", "values": [{"measurement": "mean H3Cit intensity with increasing doses of inhibitor", "setting": "[1]", "value": "dose-response read-outs"}]}, {"smiles": "CC[C@H](C)[C@@H]1NC(=O)[C@H](CCCNC(=N)N)NC(=O)[C@H](Cc2ccc(O)cc2)NC(=O)[C@H](Cc2ccccc2)NC(=O)[C@@H](Cc2ccc(O)cc2)NC(=O)CSC[C@@H](C(=O)NCC(N)=O)NC(=O)[C@H](CCC(N)=O)NC(=O)[C@H](Cc2ccc(O)cc2)NC(=O)[C@H](CC(N)=O)NC(=O)[C@@H]2CCCN2C(=O)[C@H](Cc2ccc(O)cc2)NC(=O)[C@H](Cc2c[nH]c3ccccc23)NC(=O)[C@H](Cc2ccccc2)NC(=O)CNC1=O", "note": "[PADI4_1] ({CH2CO}-[dY]FYRIGFWYPNYQCG-NH2; thioether N-14)", "values": [{"measurement": "PADI4 inhibition (in words)", "setting": "[2]; COLDER, 10 mM CaCl2, peptide 10–0.0003 µM", "value": "No PADI4 inhibition was observed"}, {"measurement": "change in K50(Ca2+) (in words)", "setting": "[3]", "value": "little change"}, {"measurement": "K50(Ca2+) of PADI4 in presence of peptide", "setting": "[3]; Fig. 4A, COLDER, CaCl2 10–0.003 mM, mean ± SEM of three independent replicates", "value": "0.359 ± 0.026", "unit": "mM"}]}, {"smiles": "N=C(N)NCCC[C@@H]1NC(=O)[C@@H](Cc2ccc(O)cc2)NC(=O)CSC[C@@H](C(=O)NCC(N)=O)NC(=O)[C@H](Cc2ccc(O)cc2)NC(=O)[C@H](CCCCN)NC(=O)[C@@H]2CCCN2C(=O)[C@H](Cc2c[nH]cn2)NC(=O)[C@H](CCCNC(N)=O)NC(=O)[C@H](Cc2ccc(O)cc2)NC(=O)[C@H](Cc2c[nH]cn2)NC(=O)[C@H](Cc2c[nH]cn2)NC(=O)[C@H](CC(=O)O)NC1=O", "note": "[PADI4_3.R7Cit] ({CH2CO}-[dY]RDHHY[Cit]HPKYCG-NH2; thioether N-12)", "values": [{"measurement": "IC50", "setting": "[2]; average of 3 replicates (Stdev in separate column), COLDER assay, 10 mM CaCl2, substrate BAEE, source data of Figure 2F, read-out: IC50s Average", "value": 83.2, "unit": "nM"}]}, {"smiles": "N=C(N)NCCC[C@@H]1NC(=O)[C@H](Cc2ccc(O)cc2)NC(=O)[C@H](Cc2c[nH]cn2)NC(=O)[C@H](Cc2c[nH]cn2)NC(=O)[C@H](CC(=O)O)NC(=O)[C@H](CCCNC(=N)N)NC(=O)[C@@H](Cc2ccc(O)cc2)NC(=O)CSC[C@@H](C(=O)NCC(N)=O)NC(=O)[C@H](Cc2ccc(O)cc2)NC(=O)[C@H](CCCCN)NC(=O)[C@@H]2CCCN2C(=O)[C@H](Cc2c[nH]cn2)NC1=O", "note": "[PADI4_3] ({CH2CO}-[dY]RDHHYRHPKYCG-NH2; thioether N-12)", "values": [{"measurement": "CP50 at 4 °C", "setting": "[4]; CAPA at 4C, run 220915, in µM (unit assumed)", "value": 11.21}, {"measurement": "CP50 at 4 °C", "setting": "[4]; CAPA at 4C, run 240501, in µM (unit assumed)", "value": 8.235}, {"measurement": "CP50 at 4 °C", "setting": "[4]; [6]", "value": "9.7 ± 2.1", "unit": "µM"}, {"measurement": "CP50", "setting": "[4]; [7]", "value": "1.4 ± 0.1", "unit": "µM"}, {"measurement": "CP50 at 4 °C relative to 37 °C", "setting": "[4]; CAPA", "value": 7, "unit": "times"}, {"measurement": "cytotoxicity", "setting": "[5]; 1 µM peptide, imaged for 24h", "value": "No cytotoxicity was observed"}]}, {"smiles": "CC(C)C[C@H](NC(=O)[C@H](CCC(N)=O)NC(=O)[C@H](CC(C)C)NC(=O)[C@@H](NC(=O)[C@H](CCC(N)=O)NC(=O)[C@H](CCCNC(=N)N)NC(=O)[C@H](Cc1ccc(O)cc1)NC(=O)[C@H](CCCNC(=N)N)NC(=O)[C@@H]1CSCC(=O)N[C@@H](Cc2ccc(O)cc2)C(=O)N[C@@H](CCC(=O)O)C(=O)N[C@@H](CO)C(=O)N1)C(C)C)C(N)=O", "note": "[PADI4_11] ({CH2CO}-YESCRYRQVLQL-NH2; thioether N-4)", "values": [{"measurement": "CP50 at 4 °C", "setting": "[4]; [6]", "value": "10.8 ± 4.7", "unit": "µM"}, {"measurement": "CP50", "setting": "[4]; [7]", "value": "3.1 ± 1.2", "unit": "µM"}, {"measurement": "CP50 at 4 °C relative to 37 °C", "setting": "[4]; CAPA", "value": 4, "unit": "times"}, {"measurement": "cytotoxicity, live cell imaging of cell death", "setting": "[5]; 25µM peptide, 48 h", "value": "not toxic to the cells"}]}]}
